The record followed here is patent US7737143B2, “Substituted pyrazines as kinase inhibitors” (YM Biosciences Australia Pty Ltd, priority 2003, dated 2010).

Where only a bound is given, the exact number is not on record here.

Format in all cases: biochemical
The target in experiment [1] is T1, zap70 (Homo sapiens, UniProt P43403).
T1 sequence (P43403 338-600 limits assumed): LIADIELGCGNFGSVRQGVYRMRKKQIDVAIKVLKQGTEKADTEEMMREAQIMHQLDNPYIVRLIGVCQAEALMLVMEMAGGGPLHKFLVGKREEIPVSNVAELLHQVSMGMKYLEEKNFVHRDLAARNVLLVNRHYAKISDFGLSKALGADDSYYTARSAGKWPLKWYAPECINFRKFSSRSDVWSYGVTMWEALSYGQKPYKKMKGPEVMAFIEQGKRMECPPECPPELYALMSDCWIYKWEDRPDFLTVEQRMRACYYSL
Briefly: Kinase assay (ELISA or Alphascreen), zap70. The conditions noted are these: standard conditions, read-out: zap70 inhibition of enzyme activity. As for the experimental part:
(§1) Kinase assays were performed either in a 96 well capture-based ELISA assay or in 384 well Optiplates (Packard) using an Alphascreen Protein Tyrosine Kinase kit. In either case using approximately 15 μg of affinity purified PTK domain in the presence of 50 mM HEPES, pH 7.5, 10 mM MgCl2 150 mM NaCl and 10 μM-1 mM ATP. The biotinylated substrate biotin-EGPWLEEEEEAYGWMDF-NH2 (final concentration 5 μM) was used as substrate. In the ELISA assay tyrosine phosphorylation was quantitated following transfer to an avidin coated ELISA plate using peroxidase-linked anti-phospho-tyrosine antibody PY20. In the Alphascreen assay, Alphascreen phosphotyrosine acceptor beads followed by streptavidin donor beads were added under subdued light. The ELISA plates were read on a BMG Fluorostar, the Alphascreen plates were read on a Packard Fusion Alpha. Inhibitors were added to the assays fifteen minutes prior to the addition of ATP. Inhibitors were added in aqueous DMSO, with DMSO concentrations never exceeding 1%.

Experiment [2] concerns the target T2, abl (Homo sapiens, UniProt P00519).
T2 sequence (P00519 242-493 limits assumed): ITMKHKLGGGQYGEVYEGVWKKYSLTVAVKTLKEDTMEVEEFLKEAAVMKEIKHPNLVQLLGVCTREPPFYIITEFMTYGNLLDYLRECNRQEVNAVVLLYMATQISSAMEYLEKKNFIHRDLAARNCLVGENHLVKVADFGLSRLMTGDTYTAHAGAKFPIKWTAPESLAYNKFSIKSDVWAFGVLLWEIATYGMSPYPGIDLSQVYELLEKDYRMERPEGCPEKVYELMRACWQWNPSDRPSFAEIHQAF
As to the kind of experiment: Kinase assay (ELISA or Alphascreen), abl. The conditions noted are these: standard conditions, read-out: abl inhibition of enzyme activity. The procedure: as §1
On the technique in general: An ELISA detects its analyte on a solid surface through an enzyme-linked reagent.

For experiment [3], the target named is T3, human JAK2 (Homo sapiens, UniProt O60674).
T3 construct: The kinase domain of human JAK2 was amplified from U937mRNA; His tag (pFastBac HTc vector; nickel chelate purification) (N); made in house; host or cells: baculovirus; Sf9 for virus, High Five insect cells for production
As to the kind of experiment: JAK kinase assay (ELISA or Alphascreen), Jak2. The conditions noted are these: standard conditions, read-out: Jak2 inhibition of enzyme activity.
Excerpt: The kinase domain of human JAK2 was amplified from U937mRNA using the polymerase chain reaction with the following primers: […]
JAK2 PCR products were cloned into the pFastBac HTc expression vector (Gibco) via the Sal I and Not I sites. The JAK2 plasmid was then transformed into competent DHL10Bac cells (Gibco), and the recombinant baculovirus produced prepared for transfection into Sf9 insect cells.
(§2) Baculovirus preparations from each of the JAK family members were infected into five litres of High Five cells (Invitrogen) grown in High Five serum free medium (Invitrogen) to a cell density of approximately 1-2×10^6 cells/ml. Cells are infected with virus at a MOI of 0.8-3.0. Cells were harvested and lysed. JAK kinase domains were purified by affinity chromatography on a Probond (Invitrogen) nickel chelate affinity column.
as §1

Experiment [4] has as its target T4, human JAK3 (Homo sapiens, UniProt P52333).
T4 construct: The kinase domain of human JAK3 was amplified from U937mRNA; His tag (pFastBac HTb vector; nickel chelate purification) (N); made in house; host or cells: baculovirus; Sf9 for virus, High Five insect cells for production
As to the kind of experiment: JAK kinase assay (ELISA or Alphascreen), Jak3. The conditions noted are these: standard conditions, read-out: Jak3 inhibition of enzyme activity.
Excerpt: The kinase domain of human JAK3 was amplified from U937mRNA using the polymerase chain reaction with the following primers: […]
JAK3 PCR products were cloned into the pFastBac HTb expression vector (Gibco) via the Xho I and Kpn I sites. The JAK3 plasmid was then transformed into competent DH10Bac cells (Gibco), and the recombinant baculovirus produced prepared for transfection into Sf9 insect cells.
as §2, §1

Experiment [5] concerns the target kdr (Homo sapiens, UniProt P35968). As to the kind of experiment: Kinase assay (ELISA or Alphascreen), kdr. The conditions noted are these: standard conditions, read-out: kdr inhibition of enzyme activity. The procedure: as §1
Experiment [6] has as its target hck (Homo sapiens, UniProt P08631). Briefly: Kinase assay (ELISA or Alphascreen), hck. The conditions noted are these: standard conditions, read-out: hck inhibition of enzyme activity. As for the experimental part:
as §1

Experiment [7] addresses btk (Homo sapiens, UniProt Q06187). Briefly: Kinase assay (ELISA or Alphascreen), btk. The conditions noted are these: standard conditions, read-out: btk inhibition of enzyme activity. The procedure:
as §1

Experiment [8] deals with T5, fms (Homo sapiens, UniProt P07333).
T5 sequence (P07333 582-910 limits assumed): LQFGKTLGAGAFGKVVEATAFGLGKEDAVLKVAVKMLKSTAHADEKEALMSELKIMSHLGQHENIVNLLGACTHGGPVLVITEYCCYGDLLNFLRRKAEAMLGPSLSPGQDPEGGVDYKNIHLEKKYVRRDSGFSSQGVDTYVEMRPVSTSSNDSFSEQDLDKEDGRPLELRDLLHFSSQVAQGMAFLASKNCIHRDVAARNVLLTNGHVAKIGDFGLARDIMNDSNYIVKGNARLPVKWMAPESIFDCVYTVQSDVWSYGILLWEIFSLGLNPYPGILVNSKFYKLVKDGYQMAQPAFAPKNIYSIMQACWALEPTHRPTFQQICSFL
Briefly: Kinase assay (ELISA or Alphascreen), fms. The following applies: standard conditions, read-out: fms inhibition of enzyme activity. The procedure: as §1

T3 sequence (O60674 849-1124 limits assumed): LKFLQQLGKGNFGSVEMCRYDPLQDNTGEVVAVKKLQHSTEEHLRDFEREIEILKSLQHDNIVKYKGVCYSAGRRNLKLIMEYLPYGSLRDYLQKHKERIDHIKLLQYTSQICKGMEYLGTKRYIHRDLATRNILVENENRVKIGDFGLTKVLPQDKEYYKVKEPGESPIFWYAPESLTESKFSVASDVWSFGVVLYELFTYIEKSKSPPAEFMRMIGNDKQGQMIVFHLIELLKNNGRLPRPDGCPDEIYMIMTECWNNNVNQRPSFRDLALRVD
T4 sequence (P52333 822-1111 limits assumed): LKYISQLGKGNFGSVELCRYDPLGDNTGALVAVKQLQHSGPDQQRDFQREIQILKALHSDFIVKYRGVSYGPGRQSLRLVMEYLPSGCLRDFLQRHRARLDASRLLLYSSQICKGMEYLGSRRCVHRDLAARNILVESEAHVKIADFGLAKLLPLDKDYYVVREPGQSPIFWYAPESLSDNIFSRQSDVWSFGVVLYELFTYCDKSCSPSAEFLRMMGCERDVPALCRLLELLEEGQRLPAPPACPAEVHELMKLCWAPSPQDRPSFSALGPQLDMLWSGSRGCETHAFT
Sequence of hck (P08631 262-515 limits assumed, species assumed): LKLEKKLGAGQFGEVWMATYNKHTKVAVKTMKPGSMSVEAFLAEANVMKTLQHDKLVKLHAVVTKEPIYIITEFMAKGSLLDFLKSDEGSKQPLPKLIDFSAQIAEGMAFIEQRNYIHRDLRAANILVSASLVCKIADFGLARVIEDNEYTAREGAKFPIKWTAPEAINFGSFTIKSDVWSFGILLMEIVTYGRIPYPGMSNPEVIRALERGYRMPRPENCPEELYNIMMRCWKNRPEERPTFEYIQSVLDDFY
Sequence of kdr (P35968 834-1162 limits assumed, species assumed): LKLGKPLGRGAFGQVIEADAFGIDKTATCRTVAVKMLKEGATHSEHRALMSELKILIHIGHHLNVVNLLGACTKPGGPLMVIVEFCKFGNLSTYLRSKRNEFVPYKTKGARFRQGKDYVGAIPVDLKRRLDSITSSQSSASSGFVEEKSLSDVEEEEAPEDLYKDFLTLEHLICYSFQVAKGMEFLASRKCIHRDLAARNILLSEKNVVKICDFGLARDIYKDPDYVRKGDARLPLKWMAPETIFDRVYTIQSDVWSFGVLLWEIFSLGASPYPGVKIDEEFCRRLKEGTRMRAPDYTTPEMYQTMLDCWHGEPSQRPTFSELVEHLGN
Sequence of btk (Q06187 402-655 limits assumed, species assumed): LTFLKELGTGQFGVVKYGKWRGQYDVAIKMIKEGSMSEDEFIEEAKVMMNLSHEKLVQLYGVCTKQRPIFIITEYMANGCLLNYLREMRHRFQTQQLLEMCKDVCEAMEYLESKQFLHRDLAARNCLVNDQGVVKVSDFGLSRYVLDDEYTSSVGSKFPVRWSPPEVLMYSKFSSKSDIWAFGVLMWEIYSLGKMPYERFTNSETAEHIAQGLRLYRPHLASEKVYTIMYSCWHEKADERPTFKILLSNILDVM

In general, inhibition refers to the change of the read-out against control, counted positive when it falls. In the case of `CC[C@H](Nc1cncc(-n2cnc3ccccc32)n1)c1ccccc1`, the inhibition at 20 µM is not below 50% in experiment [1], not below 50% in experiment [2], not below 50% in experiment [3] and less than 50% in experiment [4].

As to `C[C@H](Nc1cncc(-n2cnc3cc(NC(=O)N4CCN(C)CC4)ccc32)n1)c1ccccc1`, the inhibition at 20 µM in experiment [5] is not below 50%; in experiment [1], not below 50%; in experiment [2], not below 50%; in experiment [3], not below 50%; in experiment [4], less than 50%; in experiment [6], not below 50%.

As to `COc1cc(-c2cncc(-n3cnc4ccccc43)n2)ccc1O`, the values for the inhibition at 20 µM in experiment [2], in experiment [3] and in experiment [4] were not below 50%, less than 50% and less than 50%, respectively.

For the compound `C[C@H](Nc1cncc(-n2cnc3cc(C(=O)NCCCCN4CCOCC4)ccc32)n1)c1ccccc1`, the inhibition at 20 µM was not below 50% in experiment [1], not below 50% in experiment [2], not below 50% in experiment [3] and less than 50% in experiment [4].

Consider `C[C@H](Nc1cncc(-n2cnc3ccc(CO)cc32)n1)c1ccc(F)cc1`, for which the inhibition at 20 µM in experiment [3] is not below 50%; in experiment [7], not below 50%; in experiment [4], less than 50%; in experiment [6], not below 50%.

For the compound `CC(Nc1cncc(-n2cnc3cc(C#N)ccc32)n1)c1cccc2ccccc12` (stereo not drawn), the inhibition at 20 µM in experiment [3] is less than 50%; in experiment [8], not below 50%; in experiment [4], less than 50%.

Regarding `CCNC(=O)Nc1ccc2c(c1)ncn2-c1cncc(N[C@@H](C)c2ccccc2)n1`, the inhibition at 20 µM was not below 50% in experiment [3], not below 50% in experiment [8] and less than 50% in experiment [4].

As to `CC(Nc1cncc(-n2cnc3ccc(C#N)cc32)n1)c1cccnc1` (stereo not drawn), the inhibition at 20 µM in experiment [2] is not below 50%; in experiment [3], less than 50%; in experiment [4], less than 50%.

As for `N#Cc1ccc2c(c1)ncn2-c1cncc(N[C@H]2CCCc3ccccc32)n1`, the inhibition at 20 µM in experiment [3], in experiment [8] and in experiment [4] was not below 50% throughout.

Consider `CC(Nc1cncc(-n2cnc3cc(C#N)ccc32)n1)c1ccccc1F` (stereo not drawn), for which the inhibition at 20 µM in experiment [3], in experiment [8] and in experiment [4] was not below 50% each time.

Regarding `CC1CC(Nc2cncc(-n3cnc4cc(C#N)ccc43)n2)c2ccccc21` (stereo not drawn), the inhibition at 20 µM in experiment [3], in experiment [8] and in experiment [4] was not below 50% in each case.
